Patent US20150306232A1, “HYDROGELATORS COMPRISING D-AMINO ACIDS” (BRANDEIS UNIVERSITY, priority 2012, published 2015)

How the values were obtained:
[1] = rheological measurement of Npx containing hydrogels; type: physicochemical; conditions: hydrogel 0.8 wt %
Experimental: Rheological tests were conducted on TA ARES G2 rheometer with TA Orchestrator Software. 25 mm cone-plate was used during the experiment. 0.2 mL of hydrogel sample was placed on the cone-plate.
The measurement performs at the frequency of 6.28 rad/s (0.1 to 10% strain, frequency=10 rads^−1, 10 points per decade). Sweep mode is “log” and temperature was carried out at 25° C. The critical strain (γc) value was determined from the storage-strain profiles of the hydrogel sample. The strain applied to the hydrogel sample increased from 0.1 to 100% (10 rad/s and 25° C.). Over a certain strain, a drop in the elastic modulus was observed, and the strain amplitude at which storage moduli just begins to decrease by 5% from its maximum value was determined and taken as a measure of the critical strain of the hydrogels, which correspond to the breakdown of the cross-linked network in the hydrogel sample.
The frequency ranges from 200 rad/s to 0.1 rad/s, depending on the viscoelastic properties of each sample. A suitable strain was used to ensure the linearity of dynamic viscoelasticity.

[2] = tested on: HeLa cells; assay: MTT cytotoxicity of Npx containing hydrogelators; type: cell-based
Experimental: The HeLa cells in good condition were seeded into 96-well plate (2×10^5 cells/well) in 100 μL of MEM medium with 10% FBS. With 12 hours of incubation at 37° C. and 5% CO2, the HeLa cells were attached to bottom of 96-well plate. Then the medium was replaced by another 100 μL of growth medium that contained serial diluents of our compounds and the cells were incubated at 37° C. and 5% CO2 for additional 72 hours. The compounds were stocked at 10 μM in DMSO, followed by further dilutions with MEM medium. All of these serial diluents were adjusted to contain 0.5% of DMSO.

[3] = in vitro release of hydrogelators from hydrogels; type: physicochemical; conditions: 0.8 wt % hydrogel, PBS pH 7.4, 37° C., after 24 hours
Experimental: After studying their drug efficacies, the sustained release of Npx-containing hydrogelators from 0.8 wt % of hydrogels was studied. We incubated 100 μL of hydrogels at 37° C. for 24 hours with 100 μL of PBS buffer solution (pH 7.4), which is refreshed and monitored at 1 h, 2 h, 4 h, 8 h, 12 h, and 24 h. […] After 24 hours, hydrogel 1 slowly and steadily released 6.5% of the hydrogelator. […] Hydrogels 5 and 6 release 35.8% and 31.7% of hydrogelators after 24 h.
To illustrate the in vitro release profile of hydrogelators, we prepared 100 μL of the hydrogels formed by 1 (0.8 wt %, pH 4.0), 2 (0.8 wt %, pH 7.6), 3 (0.8 wt %, pH 7.6), 4 (0.8 wt %, pH 7.6), 5 (0.8 wt %, pH 7.0), and 6 (0.8 wt %, pH 7.0). With the addition of PBS buffer (100 μL, pH 7.4) onto the surface of hydrogels, the gels were incubated at 37° C. for 24 hours. The release solutions (100 μL) were taken and refreshed at […], 2 h, 4 h, 8 h, 12 h, and 24 h, which were detected by analytical HPLC at 276 nm for the quantities of released Npx containing hydrogelators 1, 2, 3, 4, 5, and 6.

## COc1ccc2cc([C@H](C)C(=O)N[C@H](Cc3ccccc3)C(=O)N[C@H](Cc3ccccc3)C(=O)N[C@H](Cc3ccc(O)cc3)C(=O)O)ccc2c1 [compound 2, Npx-ffy]
[1]
  critical strain: 1.6%
[1]; 6.28 rad/s
  storage modulus G′: 6.2×10^2 Pa
[2]
  cell proliferation based on the numbers of HeLa cells: no promotion of the cell proliferation
[3]
  hydrogelator released from hydrogel: 8.0%
